“And” between values parts separate entries of the source, which are not always exact repeats. Equal entries are not always repeated. Where two headings read alike, the source gives them in different places.
Legend:
Assay in all cases: MTT assay for 7-day toxicity assay
Assay type in all cases: cell-based
[1] = system: Glioma U373M (MGMT+); settings: Glioma U373M (MGMT+)
Procedure: (§1) The cell culture techniques were carried out in a Class II microbiological safety cabinet which was swabbed with 70% IMS in distilled water before each use. […] MRC-5 cells were cultured in EMEM. Cells were grown in a humidified incubator containing 5% CO2 at 37° C. Cells were sub-cultured when growth exceeded approximately 80% confluence, normally twice weekly. The medium was aspirated from the flask and approximately 0.8 mL trypsin-EDTA 1× solution added. The cells were re-incubated at 37° C. until they visibly detached from the flask. The cell suspension was then re-suspended in 5 mL medium and 0.5-1 mL of the cell suspension was transferred to a new flask (25 cm^2) with 7 mL culture medium. The cells were further incubated at 37° C. incubator. Cells were disposed after passage nearly 30 times in order to minimize phenotypic drift. New batches of cells were taken from liquid nitrogen storage by thawing rapidly (37° C. water bath) and re-suspension in a 25 cm^2 flask with 10 mL of culture medium. Two passages were allowed to resume normal growth. For long-term maintenance, viable cells at 60-80% confluence were detached by minimum amount of trypsin/EDTA and re-suspended in sterile filtered freezing medium (95% FBS, 5% DMSO), transferred to sterile cryogenic vials, and frozen overnight at −20° C. followed by −80° C. for 1-2 days and stored in liquid nitrogen for long term storage.
(§2) Most test compounds, including temozolomide, were prepared as stock solution (100 mM) in DMSO and stored at −20° C. for not more than 6 months.
(§3) Glioma cell lines, SNB19 and U373, both MGMT transfected (i.e., SNB19M and U373M) and vector controls (i.e., SNB19V and U373V); colorectal carcinoma cell lines, HCT116, HT29, and DLD1; melanoma cell line, SKMEL-28; breast cell line, MCF-7; and normal human fetal lung fibroblast cell line, MRC-5; were harvested at 60-80% confluence—during the logarithmic phase of growth.
(§4) Following harvesting, cells in suspension were gently syringed through a 23 gauge needle to obtain a near-single cell suspension. The desired cell seeding densities were used and added into 96-well plates in 180 μL culture medium if only one test compound was to be added, or 160 μL if two test compounds were to be added in combination, which were allowed to attach at 37° C. (5% CO2) overnight. For the 7 day assay, the cell seeding density for different cell lines was as follows: SNB19V, SNB19M: 650 cells/well; U373V, U373M: 650 cells/well; SNB19VR, U373VR: 650 cells/well; HCT116, DLD-1, SKMEL-28, MRC-5, MCF-7: 400 cells/well.
(§5) The two peripheral lanes were used as blank wells (cell free) and filled with 200 μL of medium in order to minimise medium evaporation from the plate. A separate time zero (T0) plate was set up alongside other plates. Serial dilutions in tissue culture medium of a 100 mM stock of test compound in DMSO were prepared immediately before each assay to ten times the final concentrations required, and then 20 μL was added to each well (200 μL total media per well) to achieve final concentrations of 0.5 μM, 1 μM, 5 μM, 10 μM, 50 μM, 100 μM, 500 μM, and 1000 μM. A minimum of four wells received the same test compound concentration. To control wells, including those in the T0 plate, 20 μL of medium was added. […] A separate plate treated in the same way, but free of test compound, was used as a measure of cell viability at the time of drug addition (day 0).
(§6) After incubation at 37° C., 5% CO2 for 7 days (or immediately for the day 0 plate), cell viability was quantified using the MTT assay. 50 μL of sterile filtered MIT (3-(4,5-dimethylthiazol-2-yl)-2,5-diphenyltetrazolium bromide) (2 mg/mL in phosphate buffered saline) were added to each well (final concentration 0.4 mg/mL) and the plates were re-incubated for 4 hours to allow metabolic conversion of MTT by dehydrogenases in viable cells to insoluble formazan crystals.
(§7) The intensity of absorbance is directly proportional to cell viability.

[2] = system: Glioma SNB19V (MGMT−); settings: Glioma SNB19V (MGMT−)
Procedure: as §1, §2, §3, §4, §5, §6, §7

[3] = system: Glioma U373V (MGMT low); settings: Glioma U373V (MGMT low)
Procedure: as §1, §2, §3, §4, §5, §6, §7

[4] = system: Glioma SNB19M (MGMT+); settings: Glioma SNB19M (MGMT+)
Procedure: as §1, §2, §3, §4, §5, §6, §7

[5] = 168 h, 7-day MTT, single determinations, read-out: GI50
[6] = 7-day MTT, single determinations, read-out: GI50

Structure (SMILES)	GI50 [1, 5] [µM]	GI50 [1, 6] [µM]	GI50 [2, 5] [µM]	GI50 [2, 6] [µM]	GI50 [3, 5] [µM]	GI50 [3, 6] [µM]	GI50 [4, 5] [µM]	GI50 [4, 6] [µM]	GI50 [1]	GI50 [2]	GI50 [3]	GI50 [4]	GI50 ([1]; read-out: GI50)	GI50 ([2]; read-out: GI50) [µM]	GI50 ([3]; read-out: GI50)	GI50 ([4]; read-out: GI50)
CSCCn1nnc2c(C(N)=O)ncn2c1=O [KK-002, 3-(2-Methylsulfanyl-ethyl)-4-oxo-3,4-dihydro-imidazo[5,1-d][1,2,3,5]tetrazine-8-carboxylic acid amide]	229	286	288	321	152	300	304	259								
NC(=O)c1ncn2c(=O)n(CCC(=O)O)nnc12 [LL-001, 3-(8-Carbamoyl-oxoimidazo[5,1-d][1,2,3,5]tetrazin-3(4H)-yl)propanoic acid]	236	281	356	355	234	248	397	232								
CC(=O)OCn1nnc2c(C(N)=O)ncn2c1=O [LL-005]	45.6	33.3	56.6	40.1	15.7	8	46	34.7								
CC(C)(C)[Si](C)(C)OCCn1nnc2c(C(N)=O)ncn2c1=O [NN-001, 3-(2-(tert-Butyldimethylsilyloxy)ethyl)-4-oxo-3,4-dihydroimidazo[5,1-d][1,2,3,5]tetrazine-8-carboxamide]									98.2 µM and 68.3 µM	128 µM and 97 µM	172 µM and 229 µM	182 µM and 263 µM				
NC(=O)c1ncn2c(=O)n(CCO)nnc12 [NN-002, 3-(2-Hydroxyethyl)-4-oxo-3,4-dihydroimidazo[5,1-d][1,2,3,5]tetrazine-8-carboxamide]									248 µM and 398 µM	200 µM and 210 µM	209 µM and 368 µM	396 µM and 437 µM				
CC(C)n1nnc2c(C(N)=O)ncn2c1=O [PP-001, 3-Isopropyl-8-carbamoylimidazotetrazin-4-one]													427 µM and 657 µM	> 1000	387 µM and 580 µM	> 1000 µM and 753 µM
